The test system of one assay is Phytophthora infestans. Description: whole plant or invertebrate. The settings on record: Phytophthora infestans, in Solanum lycopersicum, read-out: TLB control value (C.V.). It is filed as in vivo.
The next assay has as its system Puccinia recondita. The experiment in a line: Fungicidal activity against wheat leaf rust (WLR) disease, control value. As to conditions: read-out: WLR control value (C.V.). It is filed as in vivo.
The next assay concerns Erysiphae graminis. The experiment in a line: Fungicidal activity against barley powdery mildew (BPM) disease, control value. It is filed as in vivo. The settings on record: 168 h, read-out: BPM control value (C.V.).
In another assay the test system is Rhizoctonia solani AG-1. Description: Fungicidal activity against rice sheath blight (RSB) disease, control value. As to conditions: Rhizoctonia solani, AG1, in Oryza sativa, read-out: RSB control value (C.V.).
For assay [1], the system named is Pyricularia oryzae Carvara KA301. Description: whole plant or invertebrate. It is filed as in vivo. The settings on record: Pyricularia oryzae, read-out: RCB control value (C.V.).
The test system of a further assay is Botrytis cinerae. Description: Fungicidal activity against cucumber gray mold rot (CGM) disease, control value. It is filed as in vivo. The settings on record: Botrytis, read-out: CGM control value (C.V.).
Where [2] appears, read: Hordeum vulgare, barley powdery mildew.

SMILES strings stand for the structures. Like-named read-outs stand apart in the source and are kept apart here.

As to `CO/N=C(/C(=O)OC)c1ccccc1COc1ccc(C=C(F)F)cc1` [Example 9, methyl-(E)-2-(2-((4-(2,2-difluorovinyl)phenoxy)methyl)phenyl)-2-methoxyiminoacetate], the pest or weed control at 2 ppm was determined as 100% in the assay with Phytophthora infestans, 100% in the assay on Puccinia recondita (wheat leaf rust), 15% with Erysiphae graminis (setting [2]) and 100% in assay [1]. For the same compound, the pest or weed control at 10 ppm in the assay on Phytophthora infestans was 100%; with Puccinia recondita (wheat leaf rust) it was 100%; with Erysiphae graminis (setting [2]), 60%; in assay [1], 100%. Also, the pest or weed control at 50 ppm in the assay with Phytophthora infestans turned out to be 100%; in the assay on Puccinia recondita (wheat leaf rust), 100%; with Erysiphae graminis (setting [2]), 93%; in assay [1], 100%. Also, the pest or weed control at 100 ppm with Phytophthora infestans came out at 100%; in the assay on Puccinia recondita (wheat leaf rust) it was 100%; in the assay on Erysiphae graminis (setting [2]), 100%; with Rhizoctonia solani AG-1, 10%; in assay [1], 100%; in the assay on Botrytis cinerae (cucumber gray mold rot) it was 50%.
In the case of `CO/N=C(/C(=O)OC)c1ccccc1COc1ccc(C=C(Cl)Cl)c(Cl)c1` [Example 57, methyl-(E)-2-(2-((3-chloro-4-(2,2-dichlorovinyl)phenoxy)methyl)phenyl)-2-methoxyiminoacetate], the pest or weed control at 2 ppm in the assay with Phytophthora infestans stood at 99%; with Puccinia recondita (Puccinia recondita) it was 95%; in the assay with Erysiphae graminis, 100%; in the assay on Rhizoctonia solani AG-1, 90%; in assay [1], 90%. The pest or weed control at 10 ppm (in the assay with Phytophthora infestans; in the assay on Puccinia recondita (Puccinia recondita); in the assay on Erysiphae graminis; in the assay on Rhizoctonia solani AG-1; in assay [1]) was 100% each time. For the same compound, the pest or weed control at 50 ppm in the assay on Phytophthora infestans worked out at 100%; with Puccinia recondita (Puccinia recondita), 100%; with Erysiphae graminis, 100%; in the assay on Rhizoctonia solani AG-1 it was 100%; in assay [1] it was 100%; with Botrytis cinerae (50 ppm), 20%. Moreover, the pest or weed control at 100 ppm in the assay on Phytophthora infestans came to 100%; with Puccinia recondita (Puccinia recondita), 100%; in the assay with Erysiphae graminis, 100%; with Rhizoctonia solani AG-1 it was 100%; in assay [1] it was 100%; in the assay on Botrytis cinerae it was 75%.
`CCOc1cc(C=C(Br)Br)ccc1OCc1ccccc1/C(=N\OC)C(=O)OC` [Example 83, methyl-(E)-2-(2-((4-(2,2-dibromovinyl)-2-ethoxyphenoxy)methyl)phenyl)-2-methoxyiminoacetate]: the pest or weed control at 2 ppm with Phytophthora infestans amounted to 70%; with Puccinia recondita (Puccinia recondita), 95%; in the assay with Erysiphae graminis, 95%; in the assay with Rhizoctonia solani AG-1, 75%; in assay [1], 50%. In addition, the pest or weed control at 10 ppm with Phytophthora infestans is 90%; in the assay on Puccinia recondita (Puccinia recondita), 100%; with Erysiphae graminis, 100%; with Rhizoctonia solani AG-1, 98%; in assay [1], 90%. Also, the pest or weed control at 50 ppm in the assay on Phytophthora infestans amounted to 98%; in the assay on Puccinia recondita (Puccinia recondita), 100%; in the assay with Erysiphae graminis, 100%; with Rhizoctonia solani AG-1 it was 100%; in assay [1], 100%. In addition, the pest or weed control at 100 ppm with Phytophthora infestans was determined as 100%; in the assay on Puccinia recondita (Puccinia recondita), 100%; with Erysiphae graminis, 100%; in the assay with Rhizoctonia solani AG-1, 100%; in assay [1], 100%; in the assay with Botrytis cinerae, 50%.
On to `CO/N=C(/C(=O)OC)c1ccccc1COc1ccc(F)cc1C=C(Br)Br` [Example 79, methyl-(E)-2-(2-((2-(2,2-dibromovinyl)-4-fluorophenoxy)methyl)phenyl)-2-methoxyiminoacetate], for which the pest or weed control at 2 ppm came to 70% in the assay with Phytophthora infestans; 95% in the assay with Puccinia recondita (Puccinia recondita); 90% with Erysiphae graminis; 85% in the assay with Rhizoctonia solani AG-1; 80% in assay [1]. Besides, the pest or weed control at 10 ppm turned out to be 90% with Phytophthora infestans; 100% in the assay with Puccinia recondita (Puccinia recondita); 100% in the assay on Erysiphae graminis; 98% in the assay with Rhizoctonia solani AG-1; 98% in assay [1]. Also, the pest or weed control at 50 ppm in the assay with Phytophthora infestans is 98%; in the assay on Puccinia recondita (Puccinia recondita) it was 100%; in the assay on Erysiphae graminis, 100%; in the assay with Rhizoctonia solani AG-1, 100%; in assay [1], 100%. The pest or weed control at 100 ppm in the assay on Phytophthora infestans was 100%; in the assay on Puccinia recondita (Puccinia recondita), 100%; in the assay with Erysiphae graminis, 100%; in the assay with Rhizoctonia solani AG-1, 100%; in assay [1], 100%; in the assay on Botrytis cinerae, 40%.
For `CO/N=C(/C(=O)OC)c1ccccc1COc1cc(C=C(Cl)Cl)ccc1OC` [Example 47, methyl-(E)-2-(2-((5-(2,2-dichlorovinyl)-2-methoxyphenoxy)methyl)phenyl)-2-methoxyiminoacetate], the pest or weed control at 2 ppm in the assay on Phytophthora infestans turned out to be 85%; in the assay on Puccinia recondita (wheat leaf rust), 100%; in the assay on Erysiphae graminis (setting [2]) it was 100%; with Rhizoctonia solani AG-1, 95%; in assay [1], 80%. In addition, the pest or weed control at 10 ppm in the assay with Phytophthora infestans was determined as 95%; with Puccinia recondita (wheat leaf rust), 100%; in the assay on Erysiphae graminis (setting [2]), 100%; in the assay on Rhizoctonia solani AG-1, 100%; in assay [1], 99%. Further, the pest or weed control at 50 ppm (with Phytophthora infestans; in the assay with Puccinia recondita (wheat leaf rust); with Erysiphae graminis (setting [2]); in the assay with Rhizoctonia solani AG-1; in assay [1]) was 100% each time. The pest or weed control at 100 ppm is 100% with Phytophthora infestans; 100% in the assay with Puccinia recondita (wheat leaf rust); 100% in the assay on Erysiphae graminis (setting [2]); 100% with Rhizoctonia solani AG-1; 100% in assay [1]; 55% in the assay with Botrytis cinerae (cucumber gray mold rot).
In the case of `CO/N=C(/C(=O)OC)c1ccccc1COc1cccc(C=C(Cl)Br)c1` [Example 15, methyl-(2E)-2-(2-((3-(2-bromo-2-chlorovinyl)phenoxy)methyl)phenyl)-2-methoxyiminoacetate], the pest or weed control at 10 ppm came to 10% with Phytophthora infestans, 100% in the assay with Puccinia recondita (wheat leaf rust), 60% in the assay with Erysiphae graminis (setting [2]) and 100% in assay [1]. Further, the pest or weed control at 50 ppm in the assay on Phytophthora infestans came to 90%; in the assay with Puccinia recondita (wheat leaf rust) it was 100%; in the assay with Erysiphae graminis (setting [2]), 93%; in assay [1], 100%. Besides, the pest or weed control at 100 ppm in the assay with Phytophthora infestans stood at 100%; with Puccinia recondita (wheat leaf rust) it was 100%; with Erysiphae graminis (setting [2]), 95%; in the assay with Rhizoctonia solani AG-1 it was 10%; in assay [1], 100%; in the assay on Botrytis cinerae (cucumber gray mold rot), 50%. Further, the pest or weed control at 2 ppm in the assay with Puccinia recondita (wheat leaf rust) was determined as 100%; in the assay with Erysiphae graminis (setting [2]), 15%; in assay [1] it was 70%.
`CO/N=C(/C(=O)OC)c1ccccc1COc1ccc(C=C(F)Cl)cc1` [Example 13, methyl-(2E)-2-(2-((4-(2-chloro-2-fluorovinyl)phenoxy)methyl)phenyl)-2-methoxyiminoacetate]: the pest or weed control at 100 ppm came to 60% in the assay with Phytophthora infestans; 90% with Puccinia recondita (wheat leaf rust); 75% in the assay with Erysiphae graminis (setting [2]); 67% in the assay on Rhizoctonia solani AG-1; 95% in assay [1]; 0% in the assay with Botrytis cinerae (cucumber gray mold rot). Further, the pest or weed control at 50 ppm in the assay with Puccinia recondita (wheat leaf rust) turned out to be 40%; in assay [1], 70%.

Values taken from patent US8410302B2, “Methoxyimino compounds and fungicide composition comprising same” (Kyung Nong Corporation, priority 2007, dated 2013).
